Source: patent US7829325B2, “Drug testing with bio-artificial organ slices including for example those derived from liver” (HepaHope, Inc., priority 2003, dated 2010)

Tests used:
liver slices [1] = system: liver slices
liver slices [2] = conditions: 20 mg loading dose; all trials; in presence of HL 100; FIG. 5
[3] = 2 mg lidocaine dose, continuous and intermittent (1:3) perfusion, in presence of HL 100, FIG. 3A

Structure (SMILES) | lidocaine levels within 30 minutes (liver slices [1]; 2 mg dose, 6 hour trials and continuous perfusion 24 hour trial, exposed to HL 100, FIG. 3B) | level of lidocaine at 120 minutes (liver slices [1]; [3]) | level of lidocaine at approximately 30 minutes after lidocaine loading (liver slices [1]; [3]) | time of maximal ammonia clearance (liver slices [2])
CCN(CC)CC(=O)Nc1c(C)cccc1C [lidocaine] | approximately 0.8 μg | approximately 0.5 :g | approximately 0.9 μg | –
N [ammonia] | – | – | – | approximately 30 minutes
